Experimental data as given in US4822892A, “N-heterocyclic platinum complexes” (Chugai Seiyaku Kabushiki Kaisha, priority 1984, dated 1989).

Key:
Colon 26 carcinoma [1] = experiment: In vivo antitumor activity against Colon 26 carcinoma, i.p. on days 4, 6 and 8 (Experiment 2); parameters: species or system CDF1/Crj strain male mouse; conditions: 40 mg/kg i.p. on day 4, 6 and 8 after implantation; tumor weighed day 14
Procedure: A small piece of Colon 26 tumor (1-2 mm^3) was subcutaneously implanted in a lateral region of abdomen of a CDF1 /Crj strain male mouse (7 weeks old). Four days after the implantation, mice with the almost same size of tumor were divided into groups of 5-6 members each, and each mouse was intraperitoneally administered the test compound on day 4, 6, and 8 after implantation in a dose of 40 mg/kg one day. Fourteen days after the implantation, each mouse was sacrificed, and the tumor thereof was weighed to calculate the GIR (%) by the following equation. [formula] where C and T represent the mean weights of tumor of the control group and the group administered the test compound, respectively.

[2] = Test on side-effects: body weight and BUN (Experiment 4); type: in vivo, BDF1/Crj strain male mice
Description: BDF1 /Crj strain male mice (6 weeks old) were intraperitoneally administered the test compound, and 1, 3 and 5 days after the administration, 3 mice were saceificed to determine the body weight and the level of urea nitrogen in blood (abbreviated as BUN).

Colon 26 carcinoma [3] = experiment: In vivo antitumor activity against Colon 26 carcinoma, single i.p. administration (Experiment 1); parameters: species or system CDF1/Crj strain male mouse; conditions: tumor weighed 10 days after administration
Description: A small piece of Colon 26 tumor (1-2 mm^3) was subcutaneously implanted in a lateral region of abdomen of a CDF1 /Crj strain male mouse (6 weeks old). Four days after the implantation, mice with the almost same size of tumor were divided into groups of 5-6 members each, and each mouse was intraperitoneally administered the test compound. Ten days after the administration, each of the mice was sacrificed, and the tumor was weighed to calculate the growth inhibitory ratio (GIR) by the following equation: [formula] wherein C and T represent the mean weights of tumor of the control group and the treated group, respectively.
Cisplatin (CDDP) which is a known compound was used as a comparison.

[4] = cited from earlier work
plasma proteins = experiment: In vitro binding to plasma proteins (Experiment 3); type: in vitro ADME, SD strain rat; conditions: 37° C., 5 μg/ml of Pt, rat plasma
Procedure: A solution of the test compound was added to plasma obtained from SD strain rat at a ratio of 1:19 by volume which corresponded to 5 μg/ml of Pt. The mixture was incubated at 37° C. under dark. At a predetermined time, the mixture was sampled, and filtered with a molecular sieve membrane (manufactured by Amico Centriflow PMS) under centrifugation. The Pt content in the filtrate unbound Pt was assayed by an atomic absorption spectrophotometry.

[5] = 60 mg/kg i.p., 1 day after administration
[6] = 60 mg/kg i.p., 3 days after administration
[7] = 60 mg/kg i.p., 5 days after administration
[8] = 12 mg/kg i.p., 1 day after administration
[9] = 12 mg/kg i.p., 3 days after administration
[10] = 12 mg/kg i.p., 5 days after administration

Row | Compound | CIR (Colon 26 carcinoma [1]) [%] | BUN (urea nitrogen in blood, mean ± SD) [2, 5] [mg/dL] | Body weight (mean ± SD) [2, 5] [g] | BUN (urea nitrogen in blood, mean ± SD) [2, 6] [mg/dL] | Body weight (mean ± SD) [2, 6] [g] | BUN (urea nitrogen in blood, mean ± SD) [2, 7] [mg/dL] | Body weight (mean ± SD) [2, 7] [g] | GIR (growth inhibitory ratio) (Colon 26 carcinoma [3]; 40 mg/kg i.p. single) [%] | GIR (growth inhibitory ratio) (Colon 26 carcinoma [3]; 60 mg/kg i.p. single) [%] | GIR (growth inhibitory ratio) (Colon 26 carcinoma [3]; 80 mg/kg i.p. single) [%] | GIR (growth inhibitory ratio) (Colon 26 carcinoma [3]; 120 mg/kg i.p. single) [%] | GIR (growth inhibitory ratio) (Colon 26 carcinoma [3]; 160 mg/kg i.p. single) | further results
1 | (R)-1,1-cyclobutanedicarboxylate(2-aminomethylpyrrolidine)platinum(II) [Compound 3] | 95 | 18.3 ± 3.1 | 23.4 ± 1.5 | 13.8 ± 1.8 | 20.1 ± 1.2 | 13.8 ± 7.6 | 17.5 ± 0.7 | 70 | 85 | 90 | 95 | died | –
2 | cis-dichloro-trans-dihydroxy(2-aminomethylazetidine)platinum(IV) [Compound 19] | – | – | – | – | – | – | – | 60 | 77 | 85 | 92 | 95% | –
3 | NC[C@H]1CCCN1.O=C([O-])C1(C(=O)[O-])CCC1.[Pt+2] [Compound 1, 1,1-cyclobutanedicarboxylate(2-aminomethylpyrrolidine)platinum(II)] | 98 | – | – | – | – | – | – | 79 | 87 | 98 | 97 | died | –
4 | (S)-1,1-cyclobutanedicarboxylate(2-aminomethylpyrrolidine)platinum(II) [Compound 2] | 99 | 20.0 ± 2.6 | 23.1 ± 1.4 | 17.7 ± 3.1 | 19.9 ± 1.6 | 15.4 ± 5.5 | 17.9 ± 1.1 | 73 | 88 | 94 | 98 | died | –
5 | [NH2][Pt]([NH2])([Cl])[Cl] [CDDP, cisplatin, reference compound] | – | – | – | – | – | – | – | – | – | – | – | – | antitumor activity (in words) ([4]; Rosenberg et al, Nature 222, 385 (1969)): has antitumor activity; nephrotoxicity (in words) ([4]; known platinum complexes including CDDP): very serious nephrotoxicity; Percent binding to plasma proteins (plasma proteins; 1 hr incubation): 16%; Percent binding to plasma proteins (plasma proteins; 4 hr incubation): 62%; Percent binding to plasma proteins (plasma proteins; 8 hr incubation): 86%; Percent binding to plasma proteins (plasma proteins; 24 hr incubation): 93%; BUN (urea nitrogen in blood, mean ± SD) [2, 8]: 23.3 ± 4.7 mg/dL; Body weight (mean ± SD) [2, 8]: 24.6 ± 1.1 g; BUN (urea nitrogen in blood, mean ± SD) [2, 9]: 38.5 ± 28.9 mg/dL; Body weight (mean ± SD) [2, 9]: 22.55 ± 1.1 g; BUN (urea nitrogen in blood, mean ± SD) [2, 10]: 65.2 ± 31.5 mg/dL; Body weight (mean ± SD) [2, 10]: 19.0 ± 1.5 g; GIR (growth inhibitory ratio) (Colon 26 carcinoma [3]; 4 mg/kg i.p. single): 26%; GIR (growth inhibitory ratio) (Colon 26 carcinoma [3]; 6 mg/kg i.p. single): 51%; GIR (growth inhibitory ratio) (Colon 26 carcinoma [3]; 8 mg/kg i.p. single): 62%; GIR (growth inhibitory ratio) (Colon 26 carcinoma [3]; 12 mg/kg i.p. single): 79%; GIR (growth inhibitory ratio) (Colon 26 carcinoma [3]; 16 mg/kg i.p. single): died
